Experimental data published in patent US12503432B2, “Ionizable lipids for nucleic acid delivery” (Global Life Sciences Solutions Canada ULC, priority 2019, dated 2025).

Legend:
[1] = LNP characterization: size and PDI by dynamic light scattering, mRNA encapsulation efficiency by RiboGreen assay; type: physicochemical
Description: Particle sizes and “polydispersity index” (PDI) of the lipid particle were measured by dynamic light scattering (DLS). PDI indicates the width of the particle distribution. This is a parameter calculated from a cumulative analysis of the (DLS)-measured intensity autocorrelation function assuming a single particle size mode and a single exponential fit to the autocorrelation function. […] The particles produced by mechanical micromixers such as the NanoAssemblr® Spark™ and NanoAssemblr® Benchtop (Precision NanoSystems Inc.) are substantially homogeneous in size assuming all other variables are neutral. A lower PDI indicates a more homogenous population of lipid particles. The Spark™ instrument is used in a screening setting to identify the lead compositions. Once the composition is selected, the lipid particle can be fine-tuned using the NanoAssemblr® Benchtop. Once the process parameters Flow Rate Ratio and Total Flow Rate is identified for the specific nanoparticle composition, the nanoparticle technology can be scaled up using the same process parameter values.
Lipid particles were also manufactured by a larger microfluidic mixer instrument, the NanoAssemblr® Ignite™ for testing. Briefly, 350 μL of mRNA was diluted using 100 mM sodium acetate buffer to the required concentration of 0.2 to 0.3 mg/mL. Lipid particle samples were then prepared by running both fluids, namely, nucleic acids in aqueous solvent and Lipid Mix in ethanol at a flow ratio of 3:1 and at a total flow rate of 12 ml/min in the microfluidic mixer. Following mixing in the microfluidic device, the post cartridge lipid nucleic acid particle sample was diluted into RNAse free tubes containing three to 40 volumes of phosphate buffered saline (PBS), pH 7.4. Ethanol was finally removed through dialysis in PBS, pH 7, or using Amicon™ centrifugal filters (Millipore, USA) at 3000 RPM, or using TFF systems. Once the required concentration was achieved, the lipid nucleic acid particles were filter sterilized using 0.2 μm filters in aseptic conditions. Final encapsulation efficiency was measured by the Ribogreen™ assay. Quant-iT™ RiboGreen® RNA Reagent and Kit (Invitrogen) following manufacturer directions.
Messenger RNA or plasmid nucleic acid therapeutic (NAT) as described below, was diluted using sodium acetate buffer to the required concentration. Lipid nucleic acid particle (LNAP) samples were then prepared by running both fluids using the NanoAssemblr® Spark instrument. Briefly, […] of nucleic acids in 100 mM sodium acetate buffer in a total volume of 32 μL was mixed with 16 μL of 37.5 mM lipid mix solution as required by the N/P ratios (4, 6, or 10 in illustrated examples). The microfluidically mixed lipid nucleic acid particles (LNAP) made in the instrument were immediately diluted down with 48 μL Ca++ and Mg++ free 1× PBS at pH 7.4 in the aqueous output well. These LNAP were immediately collected into microcentrifuge tubes containing 96 μL of the same buffer at pH 7.4. Encapsulation efficiency was measured by a modified Ribogreen™ assay (Quanti-iT RiboGreen™ RNA assay kit, Fisher). This information was used to establish the desired dosage.
After the lipid particles were made as described in Example 17, particle size (hydrodynamic diameter of the particles) was determined by Dynamic Light Scattering (DLS) using a ZetaSizer™ Nano ZS™ (Malvern Instruments, UK). He/Ne laser of 633 nm wavelength was used as the light source. Data were measured from the scattered intensity data conducted in backscattering detection mode (measurement angle=173). Measurements were an average of 10 runs of two cycles each per sample. Z-Average size was reported as the particle size, and is defined as the harmonic intensity averaged particle diameter. These LNP characteristics, as well as the results of the mRNA encapsulation efficiency for various Lipid Mixes are also described in the application are shown in Tables 4, 5 and 6. […]

primary human T cells = assay: EPO mRNA LNP delivery to primary human T cells, Quantikine IVD Human Epo ELISA; type: cell-based
Description: Reagents were acquired from Quantikine, Minneapolis, MN. The assay was performed as directed on the Quantikine® IVD® ELISA Human Erythropoietin Immunoassay protocol in the package insert. Briefly; primary human T cells were isolated from fresh whole blood using a negative selection protocol and activated using a triple activator. Seven days post-activation, T cells were dosed with mRNA LNPs encoding EPO at […] mRNA per 500,000 cells and N/P 10. After 48 h of exposure, the T cells were harvested and lysed for cytosolic EPO and media supernatant was sampled for secreted EPO. Quantikine® Human Serum Controls were used.

[2] = 5-moU EPO encoded LNPs, IL:DSPC:cholesterol:DMG-PEG (50:10:38.5:1.5), N/P 6
[3] = OVA encoded LNPs, payload 5-moU OVA, LM02, N/P 8
[4] = OVA encoded LNPs, payload WT OVA, LM02, N/P 8
[5] = Table 4 LNPs, payload and lipid mix not stated

With `CCCCC/C=C\C/C=C\CCCCCCCCC(CCCCCCCC/C=C\C/C=C\CCCCC)OC(=O)CCCN(C)C` [MC3, DLin-MC3-DMA, reference compound] as the compound, how does the “Diameter (Z. ave, nm)” value [1, 2] read?
The value was 65.1 nm.

What about the “Encapsulation Efficiency (%)” value [1, 2] of the same compound?
The value was 98.8%.

What about the “Polydispersity Index (PDI)” value [1, 2] of the same compound?
The value was 0.04.

What about the “Diameter (Z. ave, nm)” value [1, 3] of the same compound?
Its value is 65.8 nm.

And the “Encapsulation Efficiency (%)” value [1, 3]?
Its value is 95.2%.

And the “Polydispersity Index (PDI)” value [1, 3]?
Its value is 0.07.

What about the “Diameter (Z. ave, nm)” value [1, 4] of the same compound?
The value was 67.5 nm.

And the “Encapsulation Efficiency (%)” value [1, 4]?
Its value is 95.4%.

What about the “Polydispersity Index (PDI)” value [1, 4] of the same compound?
Its value is 0.03.

What about the “Diameter (Z. ave, nm)” value [1, 5] of the same compound?
Its value is 77.2 nm.

And the “Encapsulation Efficiency (%)” value [1, 5]?
The value was 88.6%.

And the “Polydispersity Index (PDI)” value [1, 5]?
The value was 0.07.

What about the “cytosolic EPO” value (primary human T cells; T cell lysate, 48 h exposure, N/P 10, FIG. 5) of the same compound?
Its value is “no cytosolic EPO”.

And the “secreted EPO” value (primary human T cells; media supernatant, 48 h exposure, N/P 10, FIG. 5)?
The value was “about 545 mlU/mL”.

And the “Fold increase in EPO concentration relative to MC3” value (primary human T cells; primary human T cells, 48 hours)?
Its value is 1.0.

What about the “EPO concentration (mIU/mL), 48 hours” value (primary human T cells; primary human T cells, 48 hours, EPO mRNA LNP, N/P 10) of the same compound?
Its value is 545.2 mIU/mL.
